Test results published in US20120220480A1, “METHOD FOR THE DETECTION OF RENAL DAMAGE” (UNIVERSIDAD DE SALAMANCA, priority 2009, published 2012).
Marks after values point to notes of the source that are not given here.

What was measured:
Female Wistar rats = experiment: Gentamicin-induced kidney damage in rats: survival, body weight, serum and urine biochemical measurements
Experimental: (§1) Female Wistar rats were used weighing 200-250 g. The animals were allocated under controlled environmental conditions in individual metabolic cages, for individual urine sample collection every 24 hours. Normal feed and water were administered ad libitum. […] On day 7, the animals were anaesthetised with sodium pentobarbital and the kidneys were perfused by the aorta with saline (0.9% NaCl) to eliminate the blood. The kidneys were immediately dissected. One was frozen in liquid nitrogen and subsequently kept at −80° C. for Western blot studies, and the other was soaked in p-formaldehyde at 3.7% for histological studies. Blood samples were also obtained in heparinised capillaries at different time points by a small incision in the tail tip. Blood was centrifuged and serum was kept at −80° C. until use. Urine was cleared by centrifugation at 10,000 g and 4° C. during 10 minutes, and kept at −80° C. until use.
Serum and urinary creatinine and urea nitrogen concentration were measured using commercial reactive strips (Roche Diagnostics) and the Reflotron® automated analyser (Roche Diagnostics). […] Urine protein concentration was measured by the Bradford method (Bradford, 1976. Anal Biochem, 72: 248-254). Urine NAG content was indirectly determined by the level of NAG activity. NAG enzymatic activity was determined by a colorimetric method based on the conversion of 3-cresolsulfonphthaleinyl-N-acetyl-D-glucosaminide into the purple 3-cresol-cresolsulfonphthaleinyl, measured at 580 nm using a plate photometer (Thermo). To measure NAG activity a commercial kit was used (Roche Diagnostics) following the manufacturer's instructions.

gelsolin [1] = experiment: Western blot analysis of gelsolin in urine and serum of treated rats
Experimental: as §1
Western blots were run with (i) urine samples (21 μl per sample), (ii) tissue extracts (100 μg total protein per sample) prepared by homogenizing the kidneys with a tissue mixer (Ultra-Turrax T8, IKA®-Werwe) at 4° C. in homogenization buffer (140 mM NaCl, 20 mM Tris-HCl pH=7.5, […] ethylenediaminetetraacetic acid—EDTA-, 10% glycerol, 1% Igepal CA-630, 1 μg/mL aprotinin, 1 μg/mL leupeptin, 1 μg/mL pepstatin A, 1 mM phenylmethylsulphonyl fluoride—PMSF—), or (iii) albumin-free blood serum. Albumin was removed from serum with a column-based, commercial kit based on the immunological retention of rat albumin (Qproteome Murine Albumin Depletion Kit, Quiagen). Samples were separated by electrophoresis in 10-15% acrylamide gels (Mini Protean II system, BioRad). Immediately, proteins were electrically transferred to an Immobilon-P membrane (Millipore). Membranes were probed with antibodies against KIM-1 (R&D Systems), bone morphogenetic protein 7 (BMP-7, Santa Cruz Biotechnology), NGAL (MBL), PAI-1 (BD Biosciences), reg IIIb (R&D Systems), and gelsolin (Santa Cruz Biotechnology).

Kidney sections = experiment: Renal histopathological study (hematoxilin and eosin stained kidney sections); assay type: in vivo, rat; conditions: rats
Experimental: (§2) Female Wistar rats were used weighing 200-250 g. […] Normal feed and water were administered ad libitum. […] The kidneys were immediately dissected.
The kidneys were kept in p-formaldehyde all night at 4° C. Next, paraffin blocks were made and 5-μm tissue sections were cut and stained with hematoxilin and eosin. Photographs were taken under an Olympus BX51 microscope connected to an Olympus DP70 colour digital camera.

reg IIIb [2] = experiment: Western blot analysis of reg IIIb in urine and serum of treated rats
Experimental: Female Wistar rats were used weighing 200-250 g. The animals were allocated under controlled environmental conditions in individual metabolic cages, for individual urine sample collection every 24 hours. Normal feed and water were administered ad libitum. […] On day 7, the animals were anaesthetised with sodium pentobarbital and the kidneys were perfused by the aorta with saline (0.9% NaCl) to eliminate the blood. The kidneys were immediately dissected. One was frozen in liquid nitrogen and subsequently kept at −80° C. for Western blot studies, and the other was soaked in p-formaldehyde at 3.7% for histological studies. Blood samples were also obtained in heparinised capillaries at different time points by a small incision in the tail tip. Blood was centrifuged and serum was kept at −80° C. until use. Urine was cleared by centrifugation at 10,000 g and 4° C. during 10 minutes, and kept at −80° C. until use. […]

reg IIIb [3] = experiment: Renal tissue gene expression by RT-PCR, reg IIIb; assay type: in vivo, rat; conditions: as early as on day 3, highest on day 6 (FIG. 8-A)
Experimental: as §2
(§3) RT-PCR-amplification of reg IIIb, gelsolin and GAPDH was performed with the next primers: for rat reg IIIb, SEQ ID NO: 15 and SEQ ID NO: 16; for rat gelsolin, SEQ ID NO: 17 and SEQ ID NO: 18; for rat glyceraldehyde 3-phosphate dehydrogenase (GAPDH), SEQ ID NO: 19 and SEQ ID NO: 20. PCR conditions were: 1×(95° C.×4 min); 30×(95° C.×1 min+Tm×1 min); 1×72° C.×10 min); where Tm was 55.5° C. for reg IIIb, 55.0° C. for gelsolin, and 55.9° C. for GAPDH.

gelsolin [4] = experiment: Renal tissue gene expression by RT-PCR, gelsolin; assay type: in vivo, rat; conditions: 3 and 6 days treatment (FIG. 8)
Experimental: as §2, §3

[5] = Leehey D J et al., 1993; cited from earlier work
[6] = rats, gentamicin i.p. 150 mg/kg, after 7 days treatment

N.N.[Cl][Pt][Cl] [cisplatin]
Renal failure (serum creatinine concentration and BUN) (Female Wistar rats; rat, in vivo): developed an overt renal failure | Full length gelsolin band in urine (gelsolin [1]; rat, in vivo): absent in the urine from all of the rats treated with cisplatin, except for one of them | ~43 kDa gelsolin fragment (t-gelsolin) band in urine (gelsolin [1]; rat, in vivo): common to both gentamicin and cisplatin groups

gentamicin
Proteinuria (Female Wistar rats; [6]): 40 ± 7.4^a mg/day | Urine flow (Female Wistar rats; [6]): 18 ± 3^a mL/day | Δ Weight (body weight as a percentage of the initial weight) (Female Wistar rats; [6]): 95 ± 3^a % | Renal histopathology after 3 days of treatment (Kidney sections; after 3 days of treatment (FIG. 7)): no findings of tubular damage | Renal histopathology at end of treatment (Kidney sections; hematoxilin-eosin, end of treatment (FIG. 2)): clear tubular necrosis | Day on which reg IIIb appears in the urine (reg IIIb [2]; rats, time course of treatment, Western blot (FIG. 7)): 4 days | Urinary level of reg IIIb (reg IIIb [2]; urine of rats with overt renal failure, Western blot (FIG. 6-A)): markedly increased | Full length gelsolin band in urine (gelsolin [1]; urine of rats with overt renal failure, Western blot (FIG. 6)): induces the appearance | Renal reg IIIb gene expression (reg IIIb [3]): induces an increase | Renal expression pattern of gelsolin (gelsolin [4]): does not modify | Proportion of treatments in which nephrotoxicity appears [5]: 10-25%
